Experimental data reported in patent US7122621B2, “Anti-cellular proliferative disorder polypeptide” (Academia Sinica, priority 2003, dated 2006).
Like-named read-outs stand apart in the source and are kept apart here. No end group written: not given here.

What was measured:
CCRF-SB = test: MTT-based cytotoxicity assay, CCRF-SB cancer cells; assay type: cell-based; conditions: Homo sapiens, Table 2, 24 hours incubation
Method: (§1) To evaluate the cell lysis activity of CHM1, a cytotoxcity assay was conducted according to the method described in Chen H. et al., Biochim. Biophys. Acta 1336:171–179, 1997 and Wang W. et al., J. Biol. Chem. 273:27438–27448, 1998.
(§2) Each of the above-prepared cell suspensions was adjusted so that it contained 1×10^5 cells/ml before being transferred into 9 wells of a 96-well plate (90 μl/well). The suspension in each well was mixed with 10 ul of a culture medium containing CHM1 freshly prepared from a […] stock solution so that the final concentrations in the 9 wells were 0, 1, 5, 10, 15, 20, 30, 50, and 100 μM, respectively. Triplicates for each well were set up. After incubating for 24 hours, a microtetrazolium (MTT)-based colorimetric assay was conducted. It is known that MTT can be metabolized by mitochondrial dehydrogenases in metabolically active cells to form a formazan salt, which has a strong absorption at 570 nm. To conduct the assay, 20 μl of a solution containing 5 mg/ml MTT (Boehringer Mannheim) was added to each of the wells mentioned above and a well containing 100 μl of PBS. The latter was used as a blank control. After incubating for 4 hours, 100 μl of a solution containing 10% SDS and […] HCl was added to each well. The plate was then incubated at 37° C. overnight. The absorbance at 570 nm of the mixture in each well was measured using a Bio-Rad model 450 microtiter plate reader. An average cell survival rate of each triplicate was determined based on the corresponding ΔA570nm relative to that of the well containing 0 μM CHM1. The survival rates thus obtained were plotted against corresponding CHM1 concentrations to form a cell survival curve and derive the IC50. Using the same procedure, also determined were the IC50s of other lytic polypeptides, such as cecropin B (CB), cecropin B1 (CB1), Melittin, and Magainin II, and cancer chemotherapeutic agents, such as doxorubicin (DOX), vincristine (VCR), methotrexate (MTX), 5-fluorouracil (5-Fu), cytarabine (Ara-C), 6-mercaptopurine (6-MP). At least three independent experiments were conducted for each of the polypeptides and agents.

[1] = system: lymphoblast RPMI 7666 cells; test: cells
Method: as §1
(§3) Anchorage-independent normal cells such as red blood cells and lymphoblast RPMI 7666 cells, and leukemia cell lines such as CCRF-CEM, HL-60, and Jurkat, K-562 cells were respectively maintained in RMPI-1640 culture media containing 10% FBS, 100 unit/ml penicillin G, and 100 μg/ml streptomycin. Cells of each type were seeded at 1×10^5/ml into a 25 cm^2 flask (Falcon) and cultured at 37° C. in the presence of 5% CO2 for two days. The cells were then centrifuged at 1000 rpm for 5 min. The resultant pellet was washed twice with the just-mentioned culture medium, resuspended in an RMPI-1640 medium containing 0.5% FBS, and cultured overnight.
as §2

HL-60 = test: cells
Method: as §1, §3, §2

CCRF-CEM = test: cells
Method: as §1, §3, §2

Jurkat = test: cells
Method: as §1, §3, §2

K-562 = test: cells
Method: as §1, §3, §2

[2] = system: stomach carcinoma (AGS) cells; test: cells
Method: as §1
(§4) Anchorage-dependent cells such as tissue cells (3T3 cells) or stomach carcinoma (AGS) cells were seeded at 1×10^4 cells/ml into a 25-cm^2 flask containing D-MEM medium supplemented with 10% FBS, 100 unit/ml penicillin G, and 100 μg/ml streptomycin. Cells were grown to about 80% confluence before being trypsinized. The trypsinized cells were resuspended in a D-MEM medium containing 0.5% FBS.
as §2

tissue cells (3T3 cells) = test: cells
Method: as §1, §4, §2

red blood cells (RBCs) = test: Hemolysis of red blood cells; assay type: cell-based; conditions: 200 μM
Method: as §3
Effects of CHM1, melittin, CB, CB1 and doxorubicin on red blood cells (RBCs) were also examined. […] In fact, about 15% of RBCs lysed after being treated with CHM1 (200 μM). In contrast, about 100%, 57%, 55%, and 20% of RBCs lysed after being treated by melittin, CB, CB1, and doxorubicin, respectively, at the same concentration.

[3] = 24 h, read-out: IC50, Lymphoblasts RPMI 7666
[4] = Homo sapiens, HL-60, 24 h, read-out: IC50, Cancer Cells HL-60
[5] = read-out: IC50, Leukemia cells CCRF-CEM, 24 hours incubation, MTT
[6] = read-out: IC50, Leukemia cells Jurkat, 24 hours incubation, MTT
[7] = read-out: IC50, Leukemia cells K-562, 24 hours incubation, MTT
[8] = read-out: IC50, Leukemia cells HL-60, Table 1, 24 hours incubation, MTT
[9] = read-out: IC50, Stomach Carcinoma AGS, 24 hours incubation, MTT
[10] = read-out: IC50, Normal cells Tissue cells (3T3), 24 hours incubation, MTT
[11] = read-out: IC50, Normal cells Lymphoblast (RPMI7666), Table 1, 24 hours incubation, MTT

O=c1[nH]cc(F)c(=O)[nH]1 [5-FU, 5-fluorouracil]
IC50 (CCRF-SB): 123 ± 30.7 µM | IC50 [1, 3]: 1.15 ± 0.4 µM | IC50 (HL-60; [4]): 7.6 ± 10.5 µM

Sc1ncnc2nc[nH]c12 [6-MP, 6-mercaptopurine]
IC50 (CCRF-SB): 0.44 ± 0.01 µM | IC50 [1, 3]: 1.24 ± 0.3 µM | IC50 (HL-60; [4]): 0.43 ± 0.05 µM

Nc1ccn([C@@H]2O[C@H](CO)[C@@H](O)[C@@H]2O)c(=O)n1 [Ara-C, cytarabine]
IC50 (CCRF-SB): 0.1 ± 0.01 µM | IC50 [1, 3]: 0.3 ± 0.1 µM | IC50 (HL-60; [4]): 0.08 ± 0.02 µM

COc1cccc2c1C(=O)c1c(O)c3c(c(O)c1C2=O)C[C@@](O)(C(=O)CO)C[C@@H]3O[C@H]1C[C@H](N)[C@H](O)[C@H](C)O1 [Doxorubicin, doxorubicin]
IC50 (CCRF-SB): 0.46 ± 0.07 µM | IC50 (CCRF-CEM; Homo sapiens, CCRF-CEM, 24 h, read-out: IC50, Leukemia cells CCRF-CEM): 0.4 ± 0.1 µM | IC50 [1, 3]: 1.86 ± 0.1 µM | IC50 ([1]; 24 h, read-out: IC50, Normal cells Lymphoblast (RPMI7666)): 1.9 ± 0.1 µM | IC50 (Jurkat; Homo sapiens, Jurkat, 24 h, read-out: IC50, Leukemia cells Jurkat): 0.4 ± 0.1 µM | IC50 (K-562; Homo sapiens, K562, 24 h, read-out: IC50, Leukemia cells K-562): > 10 µM | IC50 (HL-60; [4]): 0.19 ± 0.01 µM | IC50 (HL-60; Homo sapiens, HL-60, 24 h, read-out: IC50, Leukemia cells HL-60): 0.19 ± 0.01 µM | IC50 ([2]; Homo sapiens, AGS, 24 h, read-out: IC50, Stomach Carcinoma AGS): 4.1 ± 0.4 µM | IC50 (tissue cells (3T3 cells); Mus musculus, NIH3T3, 24 h, read-out: IC50, Normal cells Tissue cells (3T3)): 2 ± 0.7 µM | RBCs lysed (red blood cells (RBCs)): ~20%

CN(Cc1cnc2nc(N)nc(N)c2n1)c1ccc(C(=O)N[C@@H](CCC(=O)O)C(=O)O)cc1 [MTX, methotrexate]
IC50 (CCRF-SB): 0.017 ± 0.01 µM | IC50 [1, 3]: 0.132 ± 0.04 µM | IC50 (HL-60; [4]): 0.018 ± 0.01 µM

CC[C@H](C)[C@H](NC(=O)CN)C(=O)NCC(=O)N[C@@H](C)C(=O)N[C@H](C(=O)N[C@@H](CC(C)C)C(=O)N[C@@H](CCCCN)C(=O)N[C@H](C(=O)N[C@@H](CC(C)C)C(=O)N[C@H](C(=O)N[C@H](C(=O)NCC(=O)N[C@@H](CC(C)C)C(=O)N1CCC[C@H]1C(=O)N[C@@H](C)C(=O)N[C@@H](CC(C)C)C(=O)N[C@H](C(=O)N[C@@H](CO)C(=O)N[C@@H](Cc1c[nH]c2ccccc12)C(=O)N[C@H](C(=O)N[C@@H](CCCCN)C(=O)N[C@@H](CCCNC(=N)N)C(=O)N[C@@H](CCCCN)C(=O)N[C@@H](CCCNC(=N)N)C(=O)N[C@@H](CCC(N)=O)C(=O)N[C@@H](CCC(N)=O)C(N)=O)[C@@H](C)CC)[C@@H](C)CC)[C@@H](C)O)[C@@H](C)O)C(C)C)C(C)C [Melittin]
IC50 (CCRF-CEM; [5]): 0.5 ± 0.02 µM | IC50 (Jurkat; [6]): 2.5 ± 0.1 µM | IC50 (K-562; [7]): 3.2 ± 0.3 µM | IC50 (HL-60; [8]): 0.8 ± 0.02 µM | IC50 [2, 9]: 0.6 ± 0.02 µM | IC50 (tissue cells (3T3 cells); [10]): 6 ± 0.03 µM | RBCs lysed (red blood cells (RBCs)): about 100%

CC[C@]1(O)C[C@H]2CN(CCc3c([nH]c4ccccc34)[C@@](C(=O)OC)(c3cc4c(cc3OC)N(C=O)[C@H]3[C@@](O)(C(=O)OC)[C@H](OC(C)=O)[C@]5(CC)C=CCN6CC[C@]43[C@@H]65)C2)C1 [VCR, vincristine]
IC50 (CCRF-SB): 0.015 ± 0.01 µM | IC50 [1, 3]: 0.021 µM | IC50 (HL-60; [4]): 0.034 ± 0.01 µM

GIGKFLHSAKKFGKAFVGEIMNS [Magainin II]
IC50 (CCRF-CEM; 24 h): 32.9 ± 0.9 µM | IC50 (Jurkat; 24 h): 44 ± 2.4 µM | IC50 (K-562; 24 h): > 50 µM | IC50 (HL-60; 24 h): 38.3 ± 3.2 µM | IC50 ([2]; 24 h): 28.7 ± 5 µM | IC50 (tissue cells (3T3 cells); 24 h): > 50 µM

KWKVFKKIEKKWKVFKKIEKAGPKWKVFKKIEK [CHM1]
IC50 (CCRF-CEM; 24 h): 4.4 ± 0.3 µM | IC50 [1, 11]: > 100 µM | effect on normal lymphoblasts (in words) ([1]; summary of Table 1): little effect | IC50 (Jurkat; 24 h): 10.1 ± 1.2 µM | IC50 (K-562; 24 h): 8.5 ± 0.6 µM | IC50 (HL-60; 24 h): 6.7 ± 1.1 µM | IC50 ([2]; 24 h): 5.6 ± 0.5 µM | IC50 (tissue cells (3T3 cells); 24 h): > 50 µM | effect on normal tissue cells (in words) (tissue cells (3T3 cells); summary of Table 1): little effect

KWKVFKKIEKMGRNIRNGIVKAGPAIAVLGEAKAL-NH2 [CB, cecropin B]
IC50 (CCRF-CEM; 24 h): 11.7 ± 1.3 µM | IC50 [1, 11]: > 200 µM | IC50 (Jurkat; 24 h): 31.5 ± 3 µM | IC50 (K-562; 24 h): > 50 µM | IC50 (HL-60; 24 h): 18.5 ± 1.7 µM | IC50 ([2]; 24 h): > 50 µM | IC50 (tissue cells (3T3 cells); 24 h): > 50 µM

cecropin B1 [CB1]
IC50 (CCRF-CEM; [5]): 4.7 ± 0.2 µM | IC50 [1, 11]: > 200 µM | IC50 (Jurkat; [6]): 4 ± 0.4 µM | IC50 (K-562; [7]): 15.6 ± 1.8 µM | IC50 (HL-60; [8]): 8.1 ± 0.9 µM | IC50 [2, 9]: 7.1 ± 1.3 µM | IC50 (tissue cells (3T3 cells); [10]): > 50 µM
